The results in this text go back to patent US20100183633A1, “INTERLEUKIN 6 AND TUMOR NECROSIS FACTOR ALPHA AS BIOMARKERS OF JNK INHIBITION” (UNIVERSITY OF MASSACHUSETTS, priority 2008, published 2010).

One series has as its system N^KO and N^WT mice. How it is done:
(§1) All studies with the selective ablation of the Jnk1 gene in the mouse nervous system were performed using male mice (8-24 wks old). The mice were treated with PTU in the drinking water (cherry-flavored Cool-Aid supplemented without or with 1.2 mM PTU (Sigma)). Body temperature was measured using a Microtherma 2 Type “T” Thermometer (Braintree Scientic Inc). Rip-CreESR mice were treated with 1 mg 4-hydroxytamoxifen (Sigma) by intraperitoneal injection once each day for 5 consecutive days.
N^KO and N^WT mice were treated with PTU in the drinking water and the effect of feeding a chow diet or a HFD was examined.

The test system of a further series is Jnk1−/− mice. The note with it: PTU-treated Jnk1−/− mice. The protocol: as §1
The next series concerns SOCS3. The series can be described thus: Hepatic SOCS3 expression by immunoblot after IL6 treatment. The note with it: acute IL6 1 μg/kg s.c., HFD-fed F^KO mice, liver at 90 mins; compared with HFD-fed F^WT. Format: in vivo. The protocol: (§2) FIG. 10E is a representation of an immunoblot to detect expression of SOCS3 and tubulin (control). F^WT and F^KO mice were fed a HFD (16 wks). F^KO mice were treated with IL6 (1 μg/kg) by subcutaneous injection. At 90 mins post-injection, the blood IL6 concentration was 44±9.1 pg/ml (mean±SD; n=8), the liver was isolated, and the expression of SOCS3 and Tubulin was examined by immunoblot analysis as set forth in Example 1.
(§3) Immunoblot analysis: Tissue extracts were prepared using Triton lysis buffer [20 mM Tris (pH 7.4), 1% Triton X-100, 10% glycerol, 137 mM NaCl, 2 mM EDTA, 25 mM β-glycerophosphate, 1 mM sodium orthovanadate, 1 mM phenylmethylsulfonyl fluoride, and 10 μg/mL of aprotinin and leupeptin]. […] Immunocomplexes were detected by enhanced chemiluminescence (NEN). Quantitation of immunoblots was performed using the Odyssey™ infrared imaging system (LI-COR Biosciences). The amount of total and phospho-JNK1/2, cJun, ERK1/2, p38 MAPK, and AKT in tissue extracts was measured by multiplexed ELISA using a Luminex 200 instrument (Millipore) […]

A further series relates to HFD-fed F^KO mice. The series can be described thus: Insulin tolerance test after IL6 treatment. As to conditions: IL6 1 μg/kg s.c., then insulin 0.75 mU/g i.p. after 90 mins; HFD-fed F^KO vs HFD-fed F^WT. Format: in vivo. The protocol:
FIG. 10F is a graph of the glucose concentration during an ITT in which mice were treated by subcutaneous injection with IL6 (1 μg/kg) and then treated (after 90 mins) with insulin (0.75 mU/g) by intraperitoneal injection. Statistically significant differences between F^KO and F^WT mice are indicated (*, P<0.05; **, P<0.01).
Glucose tolerance, insulin tolerance, pyruvate challenge, and insulin clearance tests: The mice were fed a standard chow diet or a high fat diet (Iso Pro 3000, Purina and F3282, Bioserve Inc.) for 16 wks. Glucose tolerance tests (GTT), insulin tolerance tests (ITT), and pyruvate challenge tests were performed using methods described by Mora et al., FEBS Lett., 579, 3632 (2005). For GTT, mice fasted overnight were injected intraperitoneally with glucose (1 mg/g) and blood glucose concentration was measured over time. For ITT, mice fed ad libitum were injected intraperitoneally with insulin (0.75 mU/g) and blood glucose concentration was measured over time. In some ITT experiments, blood glucose concentration was measured at 30 minutes and the area under the curve (AUC) was calculated. For pyruvate challenge tests, mice fasted overnight were injected intraperitoneally with pyruvate (1 mg/g) and blood glucose concentration was measured over time. […]

Series [1] can be described thus: Blood IL6 concentration after subcutaneous IL6 injection. It is filed as in vivo. The note with it: IL6 1 μg/kg subcutaneous, HFD-fed F^KO mice, 90 mins post-injection, mean±SD, n=8. How it is done: as §2
Cytokine analysis: Cytokines in plasma, serum, and culture medium were measured by multiplexed ELISA using a Luminex 200 machine (Millipore) and serum mouse adipokine, adiponectin and cytokine kits (Millipore). Insulin and insulin C-peptide in plasma were measured by ELISA using a Luminex 200 machine. Blood glucose was measured with an Ascensia Breeze 2 glucose meter (Bayer). Alanine transaminase (ALT) and aspartate aminotransferase (AST) activity in serum was measured using the ALT and AST Reagent kit (Pointe Scientific) with a Tecan Sapphire […] microplate reader (Tecan Trading AG).

A further series deals with AKT. The series can be described thus: Insulin-stimulated AKT activation (immunoblot) after IL6 treatment. The note with it: IL6 1 μg/kg s.c., insulin 0.3 mU/g i.v. after 90 mins, HFD-fed F^KO mice. It is filed as in vivo. How it is done:
FIGS. 10G and 10H are representations of immunoblots to detect AKT, phospho-AKT, and tubulin in liver (G) and epididymal fat pads (H). HFD-fed F^KO mice were subcutaneously injected with IL6 (1 μg/kg) and after 90 mins, intravenously injected with insulin (0.3 mU/g). The liver (G) and epididymal fat pads (H) were isolated after 5 mins and examined by immunoblot analysis as set forth in Example 1.
as §3

Take `CCCc1cc(=O)[nH]c(=S)[nH]1` [PTU, propylthiouracil]: in the series with N^KO and N^WT mice (PTU 1.2 mM in drinking water, NKO mice), the “expression of thyroid hormone responsive genes in intrascapular brown fat” value was “suppressed the increased expression of thyroid hormone responsive genes”. Besides, the “body weight when fed a HFD, N^KO vs N^WT” value with N^KO and N^WT mice (PTU in drinking water 12 wks, diet groups after 2 wks) is on record as “No statistically significant differences”. The “blood glucose, insulin, leptin and resistin concentrations and body temperature, N^KO vs N^WT” value with N^KO and N^WT mice (after 12 wks of PTU, chow-fed and HFD-fed) was “No significant differences”. The “metabolic phenotypes of NKO mice” value in the series on N^KO and N^WT mice (inhibition of thyroid hormone by PTU-treatment) was “markedly suppressed the metabolic phenotypes”. In addition, in the series with Jnk1−/− mice, the “effect of whole body JNK1-deficiency on HFD-induced weight gain, hyperglycemia, glucose intolerance, insulin sensitivity, glucose-induced insulin release” value is given as “significantly suppressed the effect of whole body JNK1-deficiency”.

B1: IL6: inflammatory cytokine interleukin 6, given to mice by subcutaneous injection (1 μg/kg) (protein, UniProt P08505 25-211, looked up)
Interleukin-6: FPTSQVRRGDFTEDTTPNRPVYTTSQVGGLITHVLWEIVEMRKELCNGNSDCMNNDDALAENNLKLPEIQRNDGCYQTGYNQEICLLKISSGLLEYHSYLEYMKNNLKDNKKDKARVLQRDTETLIHIFNQEVKDLHKIVLPTPISNALLTDKLESQKEWLRTKTIQFILKSLEEFLKVTLRSTRQT
In the case of B1, the “hepatic SOCS3 expression” value in the series with SOCS3 was “increased hepatic SOCS3 expression”. Further, in the series on HFD-fed F^KO mice, the “insulin resistance in insulin tolerance test” value is on record as “became equally insulin resistant”. Moreover, in series [1], the “blood IL6 concentration” value amounted to 44 ± 9.1 pg/mL. For the same molecule, the “effect on AKT activation in the adipose tissue” value in the series on AKT (epididymal fat pads) was “only a moderate effect”. For the same molecule, the “insulin-stimulated AKT activation in the liver” value in the series on AKT (liver) is recorded as “reduced insulin-stimulated AKT activation”.
